Results taken from patent US10206394B2, “Herbicidal compounds” (Syngenta Participations AG, priority 2014, dated 2019).
Read-outs that look alike come from different tables or passages of the source.

Key:
Assay in all cases: Glasshouse assay for herbicidal activity (pre- and post-emergence), percentage phytotoxicity
Format in all cases: in vivo
[1] = test system: Echinochloa crus-galli (ECHCG); conditions: Echinochloa crus-galli; for pest or weed control at 250 g/ha: visual assessment (100%=total damage, 0%=no damage)
In short: (§1)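 Sow seed in standard soil in pots; apply test herbicide after 1 day (PRE) or about 12 days (POST). Grow on in the glasshouse, watering twice daily, cool-season species at 20/16 °C and warm-season at 24/18 °C. Score visible damage (0–100%) at 20 or 15 DAA respectively.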

[2] = test system: Alopecurus myosuroides (ALOMY); conditions: Alopecurus myosuroides; for pest or weed control at 250 g/ha: visual assessment (100%=total damage, 0%=no damage)
In short: as §1

Lolium perenne (LOLPE) = conditions: Lolium perenne; for pest or weed control at 250 g/ha: visual assessment (100%=total damage, 0%=no damage)
In short: as §1

Avena fatua (AVEFA) = conditions: Avena fatua; for pest or weed control at 250 g/ha: visual assessment (100%=total damage, 0%=no damage)
In short: as §1

[3] = post-emergence, 360 h, post-emergence, 15 DAA, read-out: Post-emergence herbicidal activity (percentage phytotoxicity) ECHCG POST
[4] = pre-emergence, 480 h, pre-emergence, 20 DAA, read-out: Pre-emergence herbicidal activity (percentage phytotoxicity) ECHCG PRE
[5] = post-emergence, 360 h, post-emergence, 15 DAA, read-out: Post-emergence herbicidal activity (percentage phytotoxicity) ALOMY POST
[6] = pre-emergence, 480 h, pre-emergence, 20 DAA, read-out: Pre-emergence herbicidal activity (percentage phytotoxicity) ALOMY PRE
[7] = post-emergence, 360 h, post-emergence, 15 DAA, read-out: Post-emergence herbicidal activity (percentage phytotoxicity) LOLPE POST
[8] = pre-emergence, 480 h, pre-emergence, 20 DAA, read-out: Pre-emergence herbicidal activity (percentage phytotoxicity) LOLPE PRE
[9] = post-emergence, 360 h, post-emergence, 15 DAA, read-out: Post-emergence herbicidal activity (percentage phytotoxicity) AVEFA POST
[10] = pre-emergence, 480 h, pre-emergence, 20 DAA, read-out: Pre-emergence herbicidal activity (percentage phytotoxicity) AVEFA PRE

SMILES	pest or weed control at 250 g/ha [1, 3]	pest or weed control at 250 g/ha [1, 4]	pest or weed control at 250 g/ha [2, 5]	pest or weed control at 250 g/ha [2, 6]	pest or weed control at 250 g/ha (Lolium perenne (LOLPE); [7])	pest or weed control at 250 g/ha (Lolium perenne (LOLPE); [8])	pest or weed control at 250 g/ha (Avena fatua (AVEFA); [9])	pest or weed control at 250 g/ha (Avena fatua (AVEFA); [10])	pest or weed control at 63 g/ha [1, 3]	pest or weed control at 63 g/ha [1, 4]	pest or weed control at 63 g/ha [2, 5]	pest or weed control at 63 g/ha [2, 6]	pest or weed control at 63 g/ha (Lolium perenne (LOLPE); [7])	pest or weed control at 63 g/ha (Lolium perenne (LOLPE); [8])	pest or weed control at 63 g/ha (Avena fatua (AVEFA); [9])	pest or weed control at 63 g/ha (Avena fatua (AVEFA); [10])
Cc1cc(-c2ncc(F)cc2F)cc(C)c1C1C(=O)CC(CC(=O)N2CCOCC2)C1=O (centres unmarked) [Compound B101]	100%	100%	90%	90%	100%	100%	90%	70%	–	–	–	–	–	–	–	–
C=C(Br)CNC(=O)CC1CC(=O)C(c2c(C)cc(C)cc2C)C1=O (centres unmarked) [Compound B102]	60%	80%	60%	60%	90%	100%	60%	0%	–	–	–	–	–	–	–	–
CCNC(=O)CC1CC(=O)C(c2c(C)cc(-c3ncc(Cl)cc3F)cc2C)C1=O (centres unmarked) [Compound B103]	100%	100%	100%	100%	100%	100%	100%	90%	–	–	–	–	–	–	–	–
Cc1cc(-n2ncc(Cl)c2C)cc(C)c1C1C(=O)CC(CC(=O)NC(C)(C)C)C1=O (centres unmarked) [Compound B104]	70%	20%	80%	40%	70%	10%	80%	10%	–	–	–	–	–	–	–	–
Cc1cc(-n2cc(Cl)c(C)n2)cc(C)c1C1C(=O)CC(CC(=O)NC(C)(C)C)C1=O (centres unmarked) [Compound B105]	100%	100%	70%	70%	60%	70%	60%	20%	–	–	–	–	–	–	–	–
COCCCNC(=O)CC1CC(=O)C(c2c(C)cc(-c3ncc(F)cn3)cc2C)C1=O (centres unmarked) [Compound B106]	100%	100%	100%	80%	100%	90%	100%	70%	–	–	–	–	–	–	–	–
Cc1cc(-c2ncc(F)cn2)cc(C)c1C1C(=O)CC(CC(N)=O)C1=O (centres unmarked) [Compound B107]	80%	60%	80%	60%	80%	20%	90%	10%	–	–	–	–	–	–	–	–
C=CCNC(=O)CC1CC(=O)C(c2c(C)cc(-c3ncc(F)cn3)cc2C)C1=O (centres unmarked) [Compound B108]	100%	100%	100%	100%	100%	90%	100%	90%	–	–	–	–	–	–	–	–
Cc1cc(-c2ncc(F)cn2)cc(C)c1C1C(=O)CC(CC(=O)NCC(C)(C)C)C1=O (centres unmarked) [Compound B109]	–	–	–	–	–	–	–	–	90%	80%	20%	70%	70%	60%	80%	100%
C#CCN(CC#C)C(=O)CC1CC(=O)C(c2c(C)cc(-c3ncc(F)cn3)cc2C)C1=O (centres unmarked) [Compound B110]	100%	100%	100%	90%	90%	80%	100%	80%	–	–	–	–	–	–	–	–
CCCCNC(=O)CC1CC(=O)C(c2c(C)cc(-c3ncc(F)cn3)cc2C)C1=O (centres unmarked) [Compound B111]	100%	100%	100%	70%	100%	100%	100%	90%	–	–	–	–	–	–	–	–
Cc1cc(-c2ncc(F)cn2)cc(C)c1C1C(=O)CC(CC(=O)NCC(C)C)C1=O (centres unmarked) [Compound B112]	100%	100%	100%	100%	100%	100%	100%	100%	–	–	–	–	–	–	–	–
C#CC(C)(C)NC(=O)CC1CC(=O)C(c2c(C)cc(-c3ncc(F)cn3)cc2C)C1=O (centres unmarked) [Compound B113]	100%	100%	100%	90%	100%	90%	100%	90%	–	–	–	–	–	–	–	–
Cc1cc(-c2ncc(F)cn2)cc(C)c1C1C(=O)CC(CC(=O)NC2CCCC2)C1=O (centres unmarked) [Compound B114]	100%	100%	90%	90%	90%	90%	90%	60%	–	–	–	–	–	–	–	–
Cc1cc(C)c(C2C(=O)CC(CC(=O)NC/C=C/Br)C2=O)c(C)c1 (centres unmarked) [Compound B115]	90%	100%	80%	80%	100%	100%	80%	50%	–	–	–	–	–	–	–	–
C=CCNC(=O)CC1CC(=O)C(c2c(C)cc(-c3ncc(Cl)cc3F)cc2C)C1=O (centres unmarked) [Compound B116]	100%	100%	100%	100%	100%	100%	100%	90%	–	–	–	–	–	–	–	–
C=CCNC(=O)CC1CC(=O)C(c2c(C)cc(Br)cc2C)C1=O (centres unmarked) [Compound B117]	70%	70%	80%	70%	70%	70%	70%	20%	–	–	–	–	–	–	–	–
Cc1cc(-c2ncc(Cl)cc2F)cc(C)c1C1C(=O)CC(CC(=O)NC(C)C)C1=O (centres unmarked) [Compound B118]	100%	100%	100%	100%	100%	100%	100%	90%	–	–	–	–	–	–	–	–
CCC(C)NC(=O)CC1CC(=O)C(c2c(C)cc(-c3ncc(Cl)cc3F)cc2C)C1=O (centres unmarked) [Compound B119]	100%	100%	100%	100%	100%	100%	100%	90%	–	–	–	–	–	–	–	–
